Key:
[1] = biological target: T1, High affinity nerve growth factor receptor (Homo sapiens, UniProt P04629); test: Inhibition of TrkA (unknown origin)
[2] = biological target: T1, High affinity nerve growth factor receptor; test: Inhibition of TrkA (unknown origin) by cell-based assay
[3] = biological target: T2, BDNF/NT-3 growth factors receptor (Homo sapiens, UniProt Q16620); test: Inhibition of TrkB (unknown origin)
[4] = biological target: T2, BDNF/NT-3 growth factors receptor; test: Inhibition of TrkB (unknown origin) by cell-based assay
[5] = Apparent permeability from apical side to basolateral side of MDCK cells; assay type: ADME, cell-based, Canis lupus familiaris; conditions: dog
[6] = Apparent permeability from basolateral side to apical side of MDCK cells; assay type: ADME, cell-based, Canis lupus familiaris; conditions: dog

T1 sequence (P04629 whole entry): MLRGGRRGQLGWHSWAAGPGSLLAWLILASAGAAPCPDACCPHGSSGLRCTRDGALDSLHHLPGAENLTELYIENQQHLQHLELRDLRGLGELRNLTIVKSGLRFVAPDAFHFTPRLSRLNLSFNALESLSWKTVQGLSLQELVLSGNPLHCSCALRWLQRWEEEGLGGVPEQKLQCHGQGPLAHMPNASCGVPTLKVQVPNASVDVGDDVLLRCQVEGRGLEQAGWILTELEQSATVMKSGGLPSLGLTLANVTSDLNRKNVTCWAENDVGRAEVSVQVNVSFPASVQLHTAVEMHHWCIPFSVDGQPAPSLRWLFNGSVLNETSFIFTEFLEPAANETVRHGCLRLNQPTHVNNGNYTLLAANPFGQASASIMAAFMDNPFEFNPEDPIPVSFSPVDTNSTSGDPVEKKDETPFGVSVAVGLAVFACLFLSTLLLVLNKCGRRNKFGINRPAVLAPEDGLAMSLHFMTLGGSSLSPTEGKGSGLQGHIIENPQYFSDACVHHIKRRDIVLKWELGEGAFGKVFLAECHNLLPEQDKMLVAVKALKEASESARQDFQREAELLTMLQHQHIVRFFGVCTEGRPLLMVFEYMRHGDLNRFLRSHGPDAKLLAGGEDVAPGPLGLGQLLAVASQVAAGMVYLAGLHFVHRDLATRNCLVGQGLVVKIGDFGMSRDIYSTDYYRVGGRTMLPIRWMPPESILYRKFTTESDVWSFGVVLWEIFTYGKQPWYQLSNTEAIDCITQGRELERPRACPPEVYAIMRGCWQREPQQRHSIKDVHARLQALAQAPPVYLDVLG
T2 sequence (Q16620 whole entry): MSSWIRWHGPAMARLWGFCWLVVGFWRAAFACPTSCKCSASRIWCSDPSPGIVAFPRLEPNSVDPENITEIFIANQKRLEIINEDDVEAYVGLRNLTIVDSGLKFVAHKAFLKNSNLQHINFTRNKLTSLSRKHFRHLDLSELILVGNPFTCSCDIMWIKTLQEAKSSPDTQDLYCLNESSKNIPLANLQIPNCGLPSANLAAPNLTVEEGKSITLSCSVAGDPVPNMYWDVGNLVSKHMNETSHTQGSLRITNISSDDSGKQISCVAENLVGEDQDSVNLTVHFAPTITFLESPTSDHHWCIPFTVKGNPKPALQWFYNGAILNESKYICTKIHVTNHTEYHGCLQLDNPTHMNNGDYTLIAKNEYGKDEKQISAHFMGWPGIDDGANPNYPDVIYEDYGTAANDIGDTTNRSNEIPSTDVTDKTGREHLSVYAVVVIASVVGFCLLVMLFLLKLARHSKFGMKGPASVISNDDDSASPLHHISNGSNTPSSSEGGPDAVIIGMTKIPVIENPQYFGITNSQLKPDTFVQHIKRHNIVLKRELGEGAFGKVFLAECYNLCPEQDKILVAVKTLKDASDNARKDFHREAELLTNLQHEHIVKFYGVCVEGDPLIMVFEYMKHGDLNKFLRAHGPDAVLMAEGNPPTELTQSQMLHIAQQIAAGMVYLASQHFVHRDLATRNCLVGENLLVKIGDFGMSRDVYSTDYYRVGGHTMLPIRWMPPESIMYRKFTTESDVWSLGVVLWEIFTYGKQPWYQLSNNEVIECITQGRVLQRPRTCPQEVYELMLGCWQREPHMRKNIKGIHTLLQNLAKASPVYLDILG

- IC50 [1]: 51 nM
- IC50 [2]: 1710 nM
- IC50 [3]: 11 nM
- IC50 [4]: 1300 nM
- Papp A→B [5]: 1.1 ×10⁻⁶ cm/s
- Papp B→A [6]: < 5 ×10⁻⁶ cm/s
Structure (SMILES): CC(C)[C@H](CO)Nc1nc(Nc2ccc(C(=O)O)c(Cl)c2)c2ncn(C(C)C)c2n1 [PURVALANOL B]

From ChEMBL document CHEMBL3217685, “Quantitative affinity-based chemical proteomics of TrkA inhibitors” (Medchemcomm, 2012)
